Tests used:
[1] = test system: normal human epidermal melanocytes (line M99-1H6); assay: Intracellular melanin content of UVB-stimulated human cultured melanocytes; type: cell-based; conditions: With UV; for PA (pigmenting activity): vs irradiated control
Description: In order to evaluate the activity on pigmentation, an in vitro experiment, based on the measurement of intracellular melanin content of human cultured melanocytes exposed (UVB-stimulated) or not exposed to radiation, in the absence and in the presence of the test compound, was conducted. […] Normal human epidermal melanocytes from newborn foreskin were cultured at […] in MGM “serum free” medium (Melanocyte Growth Medium, PromoCell®) supplemented with antibiotics. Cultures were maintained at 37° C. in a humidified 5% CO2 atmosphere. Subcultures of human melanocytes were propaged in MGM medium and used just before reaching confluence. Cells were counted and diluted to the desired concentration in culture medium without calf serum. The cultured melanocytes were placed in 24-well plates at a density of 60×10^3 cells per well. Two plates were seeded with cells: one for the measurement of melanin content (“Melanin plate”) and the other for the measurement of cell densities (“Neutral Red” plate). […] Cells were incubated at 37° C., in a 95% air-5% CO2 atmosphere for eight days. During this period cells were exposed to UVB radiation at day 1 (D1), day 2 (D2), day 3 (D3), day 4 (D4), day 7 (D7) and day 8 (D8). UVB radiation exposure was carried out with a parallel bank of T[…]/12 tubes emitting a continuous spectrum between 280 and 320 nm with a peak emission at 312 nm. A UVB dose of 40 mJ/cm^2 was applied at each exposure. Sham-control cells were subjected to the same procedure, but without UV exposure and without treatment. Before exposure, cell monolayers were washed with pre-warmed Phosphate Buffer Solution (PBS) and then exposed to UVB in the presence of PBS (without test product). Immediately after irradiation PBS was replaced by fresh test medium. After treatment the culture medium was removed. The cells were washed with PBS at pH 6.8 and melanin was extracted by adding NaOH-DMSO solution. Melanin extracts were heated at 80° C. for 2 hours. After cooling, aliquots were added in 96-well microplates. Optical density (OD 450 nm) was recorded at 450 nm with a microplate reader (Dynatech MR 5000). Synthetic melanin standards (Sigma) were incubated at the same conditions. This standard curve allowed the transformation of OD 450 nm into the Melanin Unit Equivalent in each well. Melanin content was measured by absorbance at […] in control and treated melanin extracts. Results were expressed as μg melanin per well determined from the standard curve: DO(450 nm)=f([melanin]). Intracellular melanin content was measured on human normal melanocytes (line […]-1H6) after the formerly described treatment and UVB exposures of cultures. […] The melanin content (μg of melanin per well) was corrected by the cellular density of each respective culture (number of cells per well) in order to express the “Pigmentation level” of cells (expressed in pg melanin/cell). The pigmenting activity (PA) of the test product was calculated according the formula: [formula]

mushroom tyrosinase = conditions: enzymatic mushroom tyrosinase assay, literature; cited from earlier work

Structure (SMILES)	Melanin content ([1]; 1 μg/ml)	PA (pigmenting activity) ([1]; 1 μg/ml)	Melanin content ([1]; 5 μg/ml)	PA (pigmenting activity) ([1]; 5 μg/ml)	Melanin content ([1]; 10 μg/ml)	PA (pigmenting activity) ([1]; 10 μg/ml)	anti-tyrosinase IC50 (mushroom tyrosinase)	Melanin content ([1]; 50 μg/ml)	PA (pigmenting activity) ([1]; 50 μg/ml)	Melanin content ([1]; 100 μg/ml)	PA (pigmenting activity) ([1]; 100 μg/ml)
O=c1cc(-c2ccc(O)c(O)c2)oc2cc(O)cc(O)c12 [Luteolin, 3′,4′,5,7-Tetrahydroxyflavone]	57.56 +/− 0.0 pg melanin/well	−22% (p < 0.01)	55.57 +/− 0.0 pg melanin/well	−25% (p < 0.01)	54.84 +/− 1.56 pg melanin/well	−26% (p < 0.01)					
OCC1O[C@@H](Oc2ccc(O)cc2)C(O)C(O)[C@@H]1O (stereo partly drawn) [arbutin, hydroquinone β-d-glucopyranoside]							about 100 μg/ml				
C[C@@H]1O[C@@H](O[C@@H]2[C@@H](O)[C@H](OCCc3ccc(O)c(O)c3)O[C@H](CO)[C@H]2OC(=O)/C=C/c2ccc(O)c(O)c2)[C@H](O)[C@H](O)[C@H]1O [Verbascoside, 2-(3′,4′-dihydroxyphenyl)ethyl-O-α-1-rhamnopyranosyl-(1→3)-β-d-(4-O-caffeoyl)-glucopyranoside]						−20% (p < 0.01)		58.32 +/− 4.44 pg melanin/well	−21% (p < 0.01)	57.80 +/− 1.63 pg melanin/well	−22% (p < 0.01)

From patent publication US20090028969A1, “Compostion for treating skin” (priority 2006, published 2009)
